Assay results taken from patent publication US6500842B1, “8-hydroxy-7-substituted quinolines as anti-viral agents” (Pharmacia & Upjohn Company, priority 1996, dated 2002).
Several values for one entry are separate records, joined by “and”; a condition that tells them apart may be missing. Identical values can stand only once. Like-named read-outs stand apart in the source and are kept apart here. Values belong to the compound of their own block, whether it stands above or below them.

What was measured:
CMV polymerase = target: T1, CMV polymerase (Human cytomegalovirus, UniProt P08546); test: modified version of the HCMV polymerase assay (100% DMSO dilution, DTT, different enzyme lot); assay type: biochemical; conditions: for inhibition at 25 µM: Concentration 25 μM; for inhibition at 200 µM: Concentration 200 μM; for IC50: read-out: IC50
T1 construct: made in house; host or cells: recombinant baculovirus-infected SF-9 cells
Procedure: The HCMV polymerase assay is performed using a scintillation proximity assay (SPA) as described in several references, such as N. D. Cook, et al., Pharmaceutical Manufacturing International, pages 49-53 (1992); K. Takeuchi, Laboratory Practice, September issue (1992); U.S. Pat. No. 4,568,649 (1986); which are incorporated by reference herein. Reactions are performed in 96-well plates. The assay is conducted in 100 μl volume with 5.4 mM HEPES (pH 7.5), 11.7 mM KCl, 4.5 mM MgCl2, 0.36 mg/ml BSA, and 90 nM ^3H-dTTP. Assays are run with and without CHAPS, (3-[(3-Cholamidopropyl)-dimethylammonio]-1-propane-sulfonate) at a final concentration of 2 mM. HCMV is diluted in enzyme dilution buffer containing 50% glycerol, 250 mM NaCl, 10 mM HEPES (pH 7.5), 100 pg/ml BSA, and 0.01% sodium azide. The HCMV polymerase, which is expressed in recombinant baculovirus-infected SF-9 cells and purified according to literature procedures, is added at 10% (or 10 μl) of the final reaction volume, i.e., 100 μl. Compounds are diluted in 50% DMSO and 10 μl are added to each well. Control wells contain an equivalent concentration of DMSO. Unless noted otherwise, reactions are initiated via the addition of 6 nM biotinylated poly(dA)-oligo(dT) template/primer to reaction mixtures containing the enzyme, substrate, and compounds of interest. Plates are incubated in a 25° C. of 37° C. H2O bath and terminated via the addition of 40 μl/reaction of 0.5 M EDTA (pH 8) per well. Reactions are terminated within the time-frame during which substrate incorporation is linear and varied depending upon the enzyme and conditions used, i.e., 30 min. for HCMV polymerase. Ten μl of streptavidin-SPA beads (20 mg/ml in PBS/10% glycerol) are added following termination of the reaction. Plates are incubated 10 min. at 37° C., then equilibrated to room temperature, and counted on a Packard Topcount. Linear regressions are performed and IC50's are calculated using computer software. Results of the testing of compounds of the present invention in this assay are shown in Tables 1, 2, 5, 9, 10, 11, 13 (except for the last compound which was tested under modified conditions) and 14 below.
A modified version of the above HCMV polymerase assay is performed as described above, but with the following changes: Compounds are diluted in 100% DMSO until final dilution into assay buffer. In the previous assay, compounds are diluted in 50% DMSO. 4.5 mM dithiotherotol (DTT) is added to the polymerase buffer.

HCMV polymerase = target: T2, HCMV polymerase (Human cytomegalovirus, UniProt P08546); test: HCMV polymerase assay (scintillation proximity assay); assay type: biochemical; conditions: pol type CMV
T2 construct: made in house; host or cells: recombinant baculovirus-infected SF-9 cells
Outline: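 Baculovirus/SF-9-expressed purified enzyme in HEPES pH 7.5, KCl, 4.5 mM MgCl2, BSA, with 90 nM ³H-dTTP, ± 2 mM CHAPS; started with 6 nM biotinylated poly(dA)-oligo(dT), 30 min, stopped with EDTA. Incorporation read by streptavidin SPA beads; IC50 by linear regression.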

[1] = Table 1, read-out: CMV pol Assay IC50

T1 sequence (P08546 whole entry): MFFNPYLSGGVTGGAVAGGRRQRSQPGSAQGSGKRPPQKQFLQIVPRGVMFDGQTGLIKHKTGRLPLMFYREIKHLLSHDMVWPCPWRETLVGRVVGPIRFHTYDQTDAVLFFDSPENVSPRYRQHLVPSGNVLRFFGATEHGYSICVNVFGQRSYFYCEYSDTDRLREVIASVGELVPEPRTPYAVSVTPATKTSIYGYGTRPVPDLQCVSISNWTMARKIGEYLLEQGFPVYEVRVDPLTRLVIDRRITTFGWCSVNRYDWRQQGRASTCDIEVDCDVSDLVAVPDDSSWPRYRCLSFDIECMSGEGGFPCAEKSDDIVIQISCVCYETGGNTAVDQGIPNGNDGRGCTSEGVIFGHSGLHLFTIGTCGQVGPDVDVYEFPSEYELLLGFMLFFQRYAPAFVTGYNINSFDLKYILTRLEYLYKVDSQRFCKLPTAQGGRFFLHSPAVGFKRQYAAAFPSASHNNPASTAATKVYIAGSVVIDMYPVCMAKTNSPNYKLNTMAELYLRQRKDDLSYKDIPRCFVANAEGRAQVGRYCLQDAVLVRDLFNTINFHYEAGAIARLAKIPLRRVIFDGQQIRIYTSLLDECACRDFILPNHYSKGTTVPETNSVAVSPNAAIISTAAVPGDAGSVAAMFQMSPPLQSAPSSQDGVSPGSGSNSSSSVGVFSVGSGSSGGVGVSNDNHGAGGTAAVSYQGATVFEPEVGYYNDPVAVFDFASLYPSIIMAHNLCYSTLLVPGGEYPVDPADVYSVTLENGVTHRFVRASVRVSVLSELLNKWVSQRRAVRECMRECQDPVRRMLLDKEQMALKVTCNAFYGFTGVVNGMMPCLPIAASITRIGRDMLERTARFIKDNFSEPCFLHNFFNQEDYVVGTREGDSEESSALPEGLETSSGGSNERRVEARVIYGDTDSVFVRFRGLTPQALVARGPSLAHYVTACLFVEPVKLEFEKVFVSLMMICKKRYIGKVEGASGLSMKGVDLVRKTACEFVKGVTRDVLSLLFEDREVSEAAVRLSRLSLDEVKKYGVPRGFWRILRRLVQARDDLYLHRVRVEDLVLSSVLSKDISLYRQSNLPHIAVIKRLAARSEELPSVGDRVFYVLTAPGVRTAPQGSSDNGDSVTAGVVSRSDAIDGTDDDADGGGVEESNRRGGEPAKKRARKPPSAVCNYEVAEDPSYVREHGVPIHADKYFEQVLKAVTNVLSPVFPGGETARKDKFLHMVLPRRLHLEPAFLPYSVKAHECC
T2 sequence (P08546 whole entry): as above

- inhibition at 3.13 µM (CMV polymerase; Concentration 3.13 μM, Table 6): -8%
- inhibition at 6.25 µM (CMV polymerase; Concentration 6.25 μM, Table 6): -8%
- inhibition at 12.5 µM (CMV polymerase; Concentration 12.5 μM, Table 6): -13%
- inhibition at 25 µM (CMV polymerase; Table 6): -21%
- inhibition at 50 µM (CMV polymerase; Concentration 50 μM, Table 6): -23%
- inhibition at 100 µM (CMV polymerase; Concentration 100 μM, Table 6): -23%
- inhibition at 200 µM (CMV polymerase; Table 6): -8%
- IC50 (CMV polymerase; Table 6): > 200 µM
- melting point: 147 to 152 °C (dec.)
SMILES: Cc1ccc2c(Cl)cc(S(=O)(=O)NCCc3ccc(NS(=O)(=O)c4c(C)noc4C)cc3)c(O)c2n1 [Example 65, 5-Chloro-8-hydroxy-2-methyl-N-[2-[4-[[(3,5-dimethyl-4-isoxazolyl)sulfonyl]amino]phenyl]ethyl]-7-quinoline-sulfonamide]

- inhibition at 3.13 µM (CMV polymerase; Concentration 3.13 μM, Table 6): 30%
- inhibition at 6.25 µM (CMV polymerase; Concentration 6.25 μM, Table 6): 19%
- inhibition at 12.5 µM (CMV polymerase; Concentration 12.5 μM, Table 6): 31%
- inhibition at 25 µM (CMV polymerase; Table 6): 32%
- inhibition at 50 µM (CMV polymerase; Concentration 50 μM, Table 6): 51%
- inhibition at 100 µM (CMV polymerase; Concentration 100 μM, Table 6): 55%
- inhibition at 200 µM (CMV polymerase; Table 6): 70%
- IC50 (CMV polymerase; Table 6): 57.4 µM
- melting point: 131 to 133 °C
SMILES: Cc1ccc2c(Cl)cc(S(=O)(=O)NCCc3ccc(Cl)cc3)c(O)c2n1 [Example 60, 5-Chloro-N-[2-(4-chlorophenyl)ethyl]-8-hydroxy-2-methyl-7-quinolinesulfonamide]

- inhibition at 3.13 µM (CMV polymerase; Concentration 3.13 uM, Table 3): 31%
- inhibition at 6.25 µM (CMV polymerase; Concentration 6.25 uM, Table 3): 41%
- inhibition at 12.5 µM (CMV polymerase; Concentration 12.5 uM, Table 3): 44%
- inhibition at 50 µM (CMV polymerase; Concentration 50 uM, Table 3): 89%
- inhibition at 100 µM (CMV polymerase; Concentration 100 uM, Table 3): 96%
- IC50 (CMV polymerase; Table 3): 10 µM
- melting point: 106 to 107 °C
SMILES: Cc1ccc2c(Cl)cc(S(=O)(=O)NCCOc3ccccc3)c(O)c2n1 [Example 35, 5-Chloro-8-hydroxy-2-methyl-N-(2-phenoxyethyl)-7-quinoline-sulfonamide]

- IC50 (HCMV polymerase; [1]): 1.3 µM
- melting point: 163 to 166 °C
SMILES: O=C(NCc1ccc(Cl)cc1)c1cc(Cl)c2cccnc2c1O [Example 11, 5-Chloro-N-[(4-chlorophenyl)methyl]-8-hydroxy-7-quinolinecarboxamide]

- IC50 (HCMV polymerase; [1]): 4.3 µM
- melting point: 276 to 278 °C
SMILES: O=C(Nc1nnc(Cc2ccc(Cl)cc2)s1)c1ccc2cccnc2c1O [Example 2, N-[5-[(4-Chlorophenyl)methyl]-1,3,4-thiadiazol-2-yl]-8-hydroxy-7-quinolinecarboxamide]

- IC50 (HCMV polymerase; Table 5, read-out: IC50): < 3.1 µM and 1.2 µM
- melting point: 83 to 86 °C
SMILES: O=C(NCC(O)c1ccccc1)c1ccc2ccc(/C=C/c3ccccc3)nc2c1O (stereo not shown) [Example 50, 8-Hydroxy-N-(2-hydroxy-2-phenylethyl)-2-(2-phenylethenyl)-7-quinolinecarboxamide]

- IC50 (HCMV polymerase; Table 2, read-out: IC50): 2 µM and 3.1 µM
- melting point: 192 to 194 °C
SMILES: O=S(=O)(NCCc1ccc(Cl)cc1)c1cc(Cl)c2cccnc2c1O [Example 23, 5-Chloro-N-[2-(4-chlorophenyl)ethyl]-8-hydroxy-7-quinoline-sulfonamide]

- IC50 (HCMV polymerase; [1]): 20.1 µM
- melting point: 268 to 272 °C (dec.)
SMILES: O=C(NC1=NC(=O)C(c2cccc(Cl)c2)S1)c1ccc2cccnc2c1O (stereo not shown) [Example 8, N-[5-(3-Chlorophenyl)-4,5-dihydro-4-oxo-2-thiazolyl]-8-hydroxy-7-quinolinecarboxamide]

- % Inhib (HCMV polymerase; Table 5, Conc 1.00e-004 M): 65%
- % Inhib (HCMV polymerase; Table 5, Conc 1.30e-005 M): 27.9%
- % Inhib (HCMV polymerase; Table 5, Conc 2.50e-005 M): 40.2%
- % Inhib (HCMV polymerase; Table 5, Conc 3.13e-006 M): −2.9%
- % Inhib (HCMV polymerase; Table 5, Conc 5.00e-005 M): 46.2%
- % Inhib (HCMV polymerase; Table 5, Conc 6.25e-006 M): 2.4%
- IC50 (HCMV polymerase; Table 5, read-out: IC50): 49.7 µM
- melting point: 178 to 183 °C
SMILES: O=C(NCc1ccc(Cl)cc1)c1ccc2ccc[n+]([O-])c2c1O [Example 58, N-[(4-Chlorophenyl)methyl]-8-hydroxy-7-quinoline-N-oxide carboxamide]

- IC50 (HCMV polymerase; Table 5, read-out: IC50): < 3.1 µM and 0.17 µM
- melting point: 131 to 132 °C
SMILES: O=C(NCCSc1ccccc1)c1ccc2ccc(/C=C/c3ccccc3)nc2c1O [Example 52, 8-Hydroxy-2-(2-phenylethenyl)-N-[2-(phenylthio)ethyl]-7-quinolinecarboxamide]

- IC50 (HCMV polymerase; Table 5, read-out: IC50): < 3.1 µM and 0.3 µM
- melting point: 163 to 165 °C
SMILES: COc1ccc(/C=C/c2ccc3ccc(C(=O)NCCSc4ccccc4)c(O)c3n2)cc1 [Example 54, 8-Hydroxy-2-[2-(4-methoxyphenyl)ethenyl]-N-[2-(phenylthio)-ethyl]-7-quinolinecarboxamide]

- IC50 (HCMV polymerase; Table 2, read-out: IC50): 23.6 µM
- melting point: 162 to 163 °C (dec.)
SMILES: CC(C)(C)c1ccc2c(Cl)cc(S(=O)(=O)NCc3ccc(Cl)cc3)c(O)c2n1 [Example 19, 5-Chloro-N-[(4-chlorophenyl)methyl]-2-(1,1-dimethylethyl)-8-hydroxy-7-quinolinesulfonamide]

- IC50 (HCMV polymerase; Table 5, read-out: IC50): < 3.1 µM and 0.17 µM
- melting point: 192 to 194 °C
SMILES: O=C(NCc1ccc(Cl)cc1)c1ccc2ccc(/C=C/c3ccccc3)nc2c1O [Example 51, N-[(4-Chlorophenyl)methyl]-8-hydroxy-2-(2-phenylethenyl)-7-quinolinecarboxamide]

- IC50 (HCMV polymerase; Table 2, read-out: IC50): 12.8 µM
- melting point: 52 to 54 °C
SMILES: Cc1ccc2c(Cl)cc(S(=O)(=O)NCc3cccc(Cl)c3)c(O)c2n1 [Example 33, 5-Chloro-N-[(3-chlorophenyl)methyl]-8-hydroxy-2-methyl-7-quinolinesulfonamide]

- IC50 (HCMV polymerase; Table 5, read-out: IC50): < 3.1 µM and 0.3 µM
- melting point: 203 to 205 °C
SMILES: COc1ccc(/C=C/c2ccc3ccc(C(=O)NCC(O)c4ccccc4)c(O)c3n2)cc1 (stereo not shown) [Example 53, 8-Hydroxy-N-(2-hydroxy-2-phenylethyl)-2-[2-(4-methoxyphenyl)ethenyl]-7-quinolinecarboxamide]

- IC50 (HCMV polymerase; Table 2, read-out: IC50): 27.9 µM
- melting point: 189 to 190 °C (dec.)
SMILES: O=S(=O)(NCc1ccc(Cl)cc1)c1cc(Cl)c2cccnc2c1O [Example 18, 5-Chloro-N-[(4-chlorophenyl)methyl]-8-hydroxy-7-quinoline-sulfonamide]

- IC50 (HCMV polymerase; Table 2, read-out: IC50): 4.6 µM
- melting point: 136 to 139 °C
SMILES: Cc1ccc2c(Cl)cc(S(=O)(=O)NCCSc3ccccc3)c(O)c2n1 [Example 26, 5-Chloro-8-hydroxy-2-methyl-N-[2-(phenylthio)ethyl]-7-quinolinesulfonamide]

- IC50 (HCMV polymerase; Table 2, read-out: IC50): 18.3 µM and 40.1 µM
- melting point: 85 to 100 °C
SMILES: CCCCCCCCNS(=O)(=O)c1cc(Cl)c2ccc(C)nc2c1O [Example 29, 5-Chloro-8-hydroxy-2-methyl-N-octyl-7-quinolinesulfonamide]

- IC50 (HCMV polymerase; [1]): 19 µM
- melting point: 95 to 98 °C
SMILES: Cc1ccc2ccc(C(=O)NCc3ccc(Cl)cc3)c(O)c2n1 [Example 10, N-[(4-Chlorophenyl)methyl]-8-hydroxy-2-methyl-7-quinolinecarboxamide]

- IC50 (HCMV polymerase; Table 5, read-out: IC50): 0.35 µM and < 0.3 µM
- melting point: 200 to 201 °C
SMILES: COc1ccc(/C=C/c2ccc3ccc(C(=O)NCc4ccc(Cl)cc4)c(O)c3n2)cc1 [Example 47, N-[(4-Chlorophenyl)methyl]-8-hydroxy-2-[2-(4-methoxyphenyl)ethenyl]-7-quinolinecarboxamide]

- IC50 (HCMV polymerase; Table 2, read-out: IC50): 14.5 µM
- melting point: 97 °C (dec.)
SMILES: O=S(=O)(Nc1ccc(Cl)cc1)c1cc(Cl)c2cccnc2c1O [Example 20, 5-Chloro-N-(4-chlorophenyl)-8-hydroxy-7-quinoline-sulfonamide]

- IC50 (HCMV polymerase; [1]): 5.8 µM
- melting point: 184 to 185 °C
SMILES: O=C(NCc1ccc(Cl)cc1)c1cc(F)c2cccnc2c1O [Example 16, 5-Fluoro-N-[[4-chlorophenyl]methyl]-8-hydroxy-7-quinolinecarboxamide]

- IC50 (HCMV polymerase; [1]): 3.9 µM and 3.1 µM and 5.1 µM
- melting point: 213 to 215 °C
SMILES: O=C(Nc1ccc(Cl)cc1)c1cc(Br)c2cccnc2c1O [Example 4, 5-Bromo-N-(4-chlorophenyl)-8-hydroxy-7-quinolinecarboxamide]

- IC50 (HCMV polymerase; Table 5, read-out: IC50): 31.5 µM and 19.7 µM
- melting point: 92 to 94 °C
SMILES: O=C(NCc1ccc(Cl)cc1)c1ccc2ccc(C(F)(F)F)nc2c1O [Example 55, N-[(4-Chlorophenyl)methyl]-8-hydroxy-2-(trifluoromethyl)-7-quinolinecarboxamide]
